{
  "source": "patent US6461997B1",
  "about": "“Triazole sulfones having herbicidal activity” (Monsanto Technology LLC, priority 1999, dated 2002)",
  "data": [
    {"test_system": "SORHA (johnsongrass (seedling))", "experiment": "Pre-emergence herbicidal activity, warm season", "format": "in vivo, Sorghum halepense", "details": "GR80 = lowest tested rate (300, 100, 30, 10 g/ha) with 80% or greater inhibition; approx. 14 days after treating; 30/21° C.", "procedure,_shortened": "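Seeds sown in sterilised fertilised topsoil received surface-applied compound in 50:50 acetone/water, typically at 300, 100, 30 and 10 g/ha, then greenhouse-grown at 30/21° C (warm-season species) or 18/13° C (cool-season species). Percent inhibition versus untreated plants was scored at about 14 days, giving GR80; an asterisk marks activity short of 80% at the top rate.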", "units": {"Pre-emergence activity (GR80) SORHA": "g/ha"}, "values": [
      {"smiles": "C=C(CC(F)(F)S(=O)(=O)c1ncn(C(=O)N(CC)CC)n1)C[Si](C)(C)C", "note": "[Example 20]", "Pre-emergence activity (GR80) SORHA": 300}
    ]},
    {"test_system": "ALOMY (blackgrass)", "experiment": "Pre-emergence herbicidal activity, cool season", "format": "in vivo, Alopecurus myosuroides", "details": "GR80 = lowest tested rate (300, 100, 30, 10 g/ha) with 80% or greater inhibition; approx. 14 days after treating; 18/13° C.", "procedure,_shortened": "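Pre-emergence soil-surface spray; rates 300/100/30/10 g/ha; acetone:water 50:50 diluent. Warm-season species (PANMI, DIGSA) grown at 30/21 °C, cool-season species (ALOMY, POLCO) at 18/13 °C. Inhibition scored ~14 d after treatment versus untreated controls → GR80.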", "units": {"Pre-emergence activity (GR80) ALOMY": "g/ha"}, "values": [
      {"smiles": "C=C(CC(F)(F)S(=O)(=O)c1ncn(C(=O)N(CC)CC)n1)C[Si](C)(C)C", "note": "[Example 20]", "Pre-emergence activity (GR80) ALOMY": 100}
    ]},
    {"test_system": "AVEFA (wild oat)", "experiment": "Pre-plant incorporated (PPI) herbicidal activity, cool season", "format": "in vivo, Avena fatua", "details": "pre-plant incorporated; lowest tested rate with 80% or greater inhibition; about 14 days", "description": "(§1) In another set of tests, the pre-plant incorporated (PPI) activity of compounds of this invention was evaluated on the same species as for the pre-emergence tests described above. In the PPI tests the following procedure, designed to simulate PPI application, was used.\n(§2) A pre-prepared topsoil mixture (described above) was placed in a pot and compacted to a depth of 1.0 to 1.25 cm from the top of the pot. Seeds of each of several monocotyledonous and dicotyledonous annual plant species were placed on top of the soil. A sufficient quantity of soil to cover the seeds and level fill the pot was weighed into an open container. A known amount of the test compound was dissolved or suspended in an organic solvent and applied by spraying to this cover soil. The cover soil was thoroughly mixed to distribute the test compound throughout the cover soil, and was then applied as a cover layer over the seeds. Untreated soil was used as a cover layer for control pots. After treatment the plants were placed in a greenhouse where they received 0.64 cm of overhead irrigation. All subsequent watering consisted of a light overhead mist and/or subirrigation as needed for germination and growth. Tables 9 and 10 below relate to warm season plant species which were placed after pre-emergence treatment in a greenhouse with a 30/21° C. day/night temperature regime. Tables 11 and 12 below relates to cool season plant species placed after pre-emergence treatment in a greenhouse or growth chamber with an 18/13° C. day/night temperature regime. Only the compounds of Examples 1, 6, 8, 11, 13 and 15-20 were included in PPI tests.\n(§3) Approximately 14 days after planting and treating, the plants were observed and herbicidal efficacy recorded as percent inhibition by comparison with untreated plants.", "units": {"PPI activity GR80, AVEFA": "g/ha"}, "values": [
      {"smiles": "C=C(CC(F)(F)S(=O)(=O)c1ncn(C(=O)N(CC)CC)n1)C[Si](C)(C)C", "note": "[Example 20]", "PPI activity GR80, AVEFA": 300}
    ]},
    {"test_system": "AVEFA (wild oat)", "experiment": "Pre-plant incorporated (PPI) herbicidal activity, cool season", "format": "in vivo, Avena fatua", "details": "weed, PPI application, 10 g/ha", "description": "as §1, §2, §3", "units": {"Percent inhibition AVEFA": "%"}, "values": [
      {"smiles": "C=C(CC(F)(F)S(=O)(=O)c1ncn(C(=O)N(CC)CC)n1)C[Si](C)(C)C", "note": "[Example 20]", "Percent inhibition AVEFA": 0}
    ]},
    {"test_system": "AVEFA (wild oat)", "experiment": "Pre-plant incorporated (PPI) herbicidal activity, cool season", "format": "in vivo, Avena fatua", "details": "weed, PPI application, 30 g/ha", "description": "as §1, §2, §3", "units": {"Percent inhibition AVEFA": "%"}, "values": [
      {"smiles": "C=C(CC(F)(F)S(=O)(=O)c1ncn(C(=O)N(CC)CC)n1)C[Si](C)(C)C", "note": "[Example 20]", "Percent inhibition AVEFA": 0}
    ]},
    {"test_system": "AVEFA (wild oat)", "experiment": "Pre-plant incorporated (PPI) herbicidal activity, cool season", "format": "in vivo, Avena fatua", "details": "weed, PPI application, 100 g/ha", "description": "as §1, §2, §3", "units": {"Percent inhibition AVEFA": "%"}, "values": [
      {"smiles": "C=C(CC(F)(F)S(=O)(=O)c1ncn(C(=O)N(CC)CC)n1)C[Si](C)(C)C", "note": "[Example 20]", "Percent inhibition AVEFA": 0}
    ]},
    {"test_system": "AVEFA (wild oat)", "experiment": "Pre-plant incorporated (PPI) herbicidal activity, cool season", "format": "in vivo, Avena fatua", "details": "weed, PPI application, 300 g/ha", "description": "as §1, §2, §3", "units": {"Percent inhibition AVEFA": "%"}, "values": [
      {"smiles": "C=C(CC(F)(F)S(=O)(=O)c1ncn(C(=O)N(CC)CC)n1)C[Si](C)(C)C", "note": "[Example 20]", "Percent inhibition AVEFA": 0}
    ]},
    {"test_system": "AVEFA (wild oat)", "experiment": "Pre-plant incorporated (PPI) herbicidal activity, cool season", "format": "in vivo, Avena fatua", "details": "weed, PPI application, 900 g/ha", "description": "as §1, §2, §3", "units": {"Percent inhibition AVEFA": "%"}, "values": [
      {"smiles": "C=C(CC(F)(F)S(=O)(=O)c1ncn(C(=O)N(CC)CC)n1)C[Si](C)(C)C", "note": "[Example 20]", "Percent inhibition AVEFA": 60}
    ]},
    {"test_system": "LOLMG (annual ryegrass)", "experiment": "Post-emergence herbicidal activity, cool season", "format": "in vivo, Lolium multiflorum", "details": "abraded plants sprayed at 300, 100, 30 and 10 g/ha; about 14 days after treatment", "procedure,_shortened": "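GR80 values derive from percent growth inhibition scored approximately 14 days post-spray against abraded, unsprayed controls under an 18/13 °C regime. Foliar application to sandblast-abraded plants used rates of 300, 100, 30 and 10 g/ha in 50:50 acetone/water at 3,100 l/ha.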", "values": [
      {"smiles": "C=C(CC(F)(F)S(=O)(=O)c1ncn(C(=O)N(CC)CC)n1)C[Si](C)(C)C", "note": "[Example 20]", "Post-emergence activity GR80, LOLMG": "[empty]"}
    ]},
    {"test_system": "soybean (GLYMX)", "experiment": "Selectivity test, PPI, warm season crop", "format": "in vivo, Glycine max", "details": "PPI application, 10 g/ha", "description": "as §2, §3\n(§4) Additional pre-emergence and PPI tests were conducted by the procedures described above, on warm and cool season weed species in the presence of crop species, to assess herbicidal selectivity. Crop species included in warm season tests were corn (Zea mays, ZEAMX), rice (Oryza sativa, ORYSA) and soybean (Glycine max, GLYMX). Crop species included in cool season tests were wheat (Triticum aestivum, TRZAW), barley (Hordeunm vulgare, HORVX) and oilseed rape (Brassica napus, BRSNS).\n(§5) Tables 15 and 16 relate to pre-emergence and PPI tests respectively on warm season species. Table 17 relates to pre-emergence tests on cool season species.", "units": {"Percent inhibition GLYMX": "%"}, "values": [
      {"smiles": "C=C(CC(F)(F)S(=O)(=O)c1ncn(C(=O)N(CC)CC)n1)C[Si](C)(C)C", "note": "[Example 20]", "Percent inhibition GLYMX": 0}
    ]},
    {"test_system": "soybean (GLYMX)", "experiment": "Selectivity test, PPI, warm season crop", "format": "in vivo, Glycine max", "details": "PPI application, 30 g/ha", "description": "as §2, §3, §4, §5", "units": {"Percent inhibition GLYMX": "%"}, "values": [
      {"smiles": "C=C(CC(F)(F)S(=O)(=O)c1ncn(C(=O)N(CC)CC)n1)C[Si](C)(C)C", "note": "[Example 20]", "Percent inhibition GLYMX": 0}
    ]},
    {"test_system": "soybean (GLYMX)", "experiment": "Selectivity test, PPI, warm season crop", "format": "in vivo, Glycine max", "details": "PPI application, 100 g/ha", "description": "as §2, §3, §4, §5", "units": {"Percent inhibition GLYMX": "%"}, "values": [
      {"smiles": "C=C(CC(F)(F)S(=O)(=O)c1ncn(C(=O)N(CC)CC)n1)C[Si](C)(C)C", "note": "[Example 20]", "Percent inhibition GLYMX": 0}
    ]},
    {"test_system": "soybean (GLYMX)", "experiment": "Selectivity test, PPI, warm season crop", "format": "in vivo, Glycine max", "details": "PPI application, 300 g/ha", "description": "as §2, §3, §4, §5", "units": {"Percent inhibition GLYMX": "%"}, "values": [
      {"smiles": "C=C(CC(F)(F)S(=O)(=O)c1ncn(C(=O)N(CC)CC)n1)C[Si](C)(C)C", "note": "[Example 20]", "Percent inhibition GLYMX": 0}
    ]},
    {"test_system": "soybean (GLYMX)", "experiment": "Selectivity test, PPI, warm season crop", "format": "in vivo, Glycine max", "details": "PPI application, 900 g/ha", "description": "as §2, §3, §4, §5", "units": {"Percent inhibition GLYMX": "%"}, "values": [
      {"smiles": "C=C(CC(F)(F)S(=O)(=O)c1ncn(C(=O)N(CC)CC)n1)C[Si](C)(C)C", "note": "[Example 20]", "Percent inhibition GLYMX": 30}
    ]},
    {"test_system": "barley (HORVX)", "experiment": "Selectivity test, PPI, cool season crop", "format": "in vivo, Hordeunm vulgare", "details": "PPI application, 10 g/ha", "description": "as §2, §3, §4, §5", "units": {"Percent inhibition HORVX": "%"}, "values": [
      {"smiles": "C=C(CC(F)(F)S(=O)(=O)c1ncn(C(=O)N(CC)CC)n1)C[Si](C)(C)C", "note": "[Example 20]", "Percent inhibition HORVX": 0}
    ]},
    {"test_system": "barley (HORVX)", "experiment": "Selectivity test, PPI, cool season crop", "format": "in vivo, Hordeunm vulgare", "details": "PPI application, 30 g/ha", "description": "as §2, §3, §4, §5", "units": {"Percent inhibition HORVX": "%"}, "values": [
      {"smiles": "C=C(CC(F)(F)S(=O)(=O)c1ncn(C(=O)N(CC)CC)n1)C[Si](C)(C)C", "note": "[Example 20]", "Percent inhibition HORVX": 0}
    ]},
    {"test_system": "barley (HORVX)", "experiment": "Selectivity test, PPI, cool season crop", "format": "in vivo, Hordeunm vulgare", "details": "PPI application, 100 g/ha", "description": "as §2, §3, §4, §5", "units": {"Percent inhibition HORVX": "%"}, "values": [
      {"smiles": "C=C(CC(F)(F)S(=O)(=O)c1ncn(C(=O)N(CC)CC)n1)C[Si](C)(C)C", "note": "[Example 20]", "Percent inhibition HORVX": 0}
    ]},
    {"test_system": "barley (HORVX)", "experiment": "Selectivity test, PPI, cool season crop", "format": "in vivo, Hordeunm vulgare", "details": "PPI application, 300 g/ha", "description": "as §2, §3, §4, §5", "units": {"Percent inhibition HORVX": "%"}, "values": [
      {"smiles": "C=C(CC(F)(F)S(=O)(=O)c1ncn(C(=O)N(CC)CC)n1)C[Si](C)(C)C", "note": "[Example 20]", "Percent inhibition HORVX": 10}
    ]},
    {"test_system": "barley (HORVX)", "experiment": "Selectivity test, PPI, cool season crop", "format": "in vivo, Hordeunm vulgare", "details": "PPI application, 900 g/ha", "description": "as §2, §3, §4, §5", "units": {"Percent inhibition HORVX": "%"}, "values": [
      {"smiles": "C=C(CC(F)(F)S(=O)(=O)c1ncn(C(=O)N(CC)CC)n1)C[Si](C)(C)C", "note": "[Example 20]", "Percent inhibition HORVX": 30}
    ]}
  ]
}
